Measured values as given in patent publication US11833120B2, “Binding protein drug conjugates comprising anthracycline derivatives” (priority 2014, dated 2023).

Columns and labels:
[1] = test system: ovarian (A2780) cancer cell line; conditions: A2780, WO2012/073217; cited from earlier work
[2] = test system: breast cancer (MCF7) cell line; conditions: MCF7, WO2012/073217; cited from earlier work
[3] = test system: L428, a Hodgkin's lymphoma cell line expressing low to moderate levels of CD30; test: In vitro cytotoxicity assay (CellTiter-Glo) on L428; format: cell-based, human; conditions: CD30 LO L428 cells, 4 days, up to 20 μg/ml
Method: For this, cells were plated on 96-well plates in 100 μl RPMI/10% FCS at a density of 10^4 cells per well and grown at 37° C. in a humidified incubator at 5% CO2 atmosphere. After one day incubation, 25 μl medium was carefully removed from each well and replaced by 25 μl of 3.5-fold serial dilutions of each ADC in growth medium, resulting in final ADC concentrations ranging from 20 μg/ml to 0.25 ng/ml. Each dilution was done in duplicate. After 4 additional days, plates were removed from the incubator and equilibrated to room temperature. After approximately 30 minutes, 100 μl CellTiter-Glo® Luminescent Solution (Promega, Cat. No G7570) was added to each well and, after shaking the plates at 450 rpm for 5 min followed by a 10 min incubation without shaking, luminescence was measured on a Tecan Infinity F200 with an integration time of 1 second per well.
Cells were incubated with serial dilutions of ADCs for 4 days, after which CellTiter-Glo® Luminescent Solution (Promega) was added and viable cells were quantified by measuring the luminescence on a Tecan Infinity F200.

| Molecule | potency for in vitro cell killing [1] | potency for in vitro cell killing [2] | cell killing (in words) [3] |
| --- | --- | --- | --- |
| COc1cccc2c1C(=O)c1c(O)c3c(c(O)c1C2=O)C[C@@](O)(C(=O)CO)C[C@@H]3O[C@H]1C[C@H]2[C@H](O[C@@H]3[C@@H](OC)OCCN32)[C@H](C)O1 [PNU-159682] | pico- to femtomolar range | pico- to femtomolar range |  |
| Adcetris |  |  | inefficient at killing |
| cAc10-PNU-EDA-Gly5 |  |  | only at higher concentrations, similar to the control ADCs employed |
